Test results published in patent publication US20240174723A1, “STAPLED ANTIMICROBIAL PEPTIDES (STAMPS) AND USES THEREOF” (Lytica Therapeutics, Inc., priority 2021, published 2024).
Converted amounts (≈) assume the structure as drawn. Positions of bridges follow the written chain, without caps; N, C: chain ends. Non-standard residues stand in square brackets, D forms with d. Residues, ends and D or L forms follow the SMILES beside them. Phe(4-CF3) = N[C@@H](Cc1ccc(C(F)(F)F)cc1)C(=O)O; Phe(4-F) = N[C@@H](Cc1ccc(F)cc1)C(=O)O; S5 = C=CCCC[C@](C)(N)C(=O)O; Pra = C#CC[C@H](N)C(=O)O

Key:
[1] = tested on: S. aureus; assay type: cell-based, Staphylococcus aureus
Procedure, shortened: (§1)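 Minimum inhibitory concentrations of stapled peptides were determined by a microbroth dilution method derived from CLSI, using a final inoculum of 5×10^5 CFU/ml and 20-24 h incubation at 37 °C.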

[2] = in vitro; assay type: cell-based; conditions: human
Experimental: Cell culture: RPTEC were maintained in MEM media supplemented with growth factors. HEPG2 cell line was maintained in Eagle's Minimum Essential Medium (EMEM) supplemented with fetal bovine serum to a final concentration of 10%.
90 minute cytotoxicity assay: Cells were plated in a 96-well format, and after overnight incubation, media was replaced with fresh media. Serial dilutions of StAMPs from a 5 mg/mL water stock, or vehicle, were added to the cells in a final volume of 100 μl. After incubating at 37° C. for 90 min, 50 μl of cell culture media was transferred to a clear 96-well plate, incubated with 50 μl of lactate dehydrogenase (LDH) assay reagent for 10 min, and absorbance measured at 490 nm on a microplate reader.
Renal toxicity was measured after 90 minutes of incubation, while liver toxicity was measured after 48 hours of incubation with StAMPs. N/A=not tested. The following apply to all peptides (i.e., StAMPs) listed in Tables A-C: Crosslinks (X^1—X^2 and X^3—X^4): (alk); N-terminus: —NH2; C-terminus: amidated with —NH2; counterion: Cl^−. The following apply to all peptides (i.e., StAMPs) listed in Table D: Crosslinks (X^1—X^2 and X^3—X^4): (alk); N-terminus: —NH2; C-terminus: as shown in table; counterion: Cl^−.
StAMP Micelle Formulation: DSPE-MPEG(2000) was suspended in buffered saline at 50-100 mg/mL overnight. StAMP stock solutions at 5-20 mg/mL in buffered saline were prepared and equal volumes of micelle and StAMP stock solution were mixed at the desired StAMP:Lipid ratio. Suspensions were allowed to sit for 5-10 minutes at room temperature before being used in in vitro and in vivo assays.
In Table E, the StAMP is StAMP 4 (Table A) and “Lipid”=DSPE-MPEG(2000).

[3] = tested on: K. pneumoniae; assay type: cell-based, Klebsiella pneumoniae
Procedure, shortened: as §1

[4] = tested on: P. aeruginosa; assay type: cell-based, Pseudomonas aeruginosa
Procedure, shortened: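 Broth microdilution adapted from CLSI in MHB or cation-adjusted MHB; log-phase P. aeruginosa at 5×10^5 CFU/ml final with serially diluted stapled peptides. Incubated 20-24 h at 37 °C; MIC is the lowest concentration without visible growth.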

[5] = tested on: E. coli; assay type: cell-based, Escherichia coli
Procedure, shortened: as §1

[6] = tested on: A. baumannii; assay type: cell-based, Acinetobacter baumannii
Procedure, shortened: as §1

[7] = in vitro; assay type: cell-based; conditions: human, Inhibitory Concentration at 50% Cytotoxicity (IC50) Human Liver Cells (HepG2)
Procedure, shortened: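 HepG2 cells in EMEM with 10% FBS, allowed 4 h to attach, then exposed to serial dilutions of StAMPs (from a 5 mg/mL water stock) or vehicle. After 48 h at 37 °C, viability read by CellTiter-Glo luminescence.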

Structure (SMILES) | Minimum Inhibitory Concentration (MIC) S. aureus [1] | IC50 at 90 min [2] | Minimum Inhibitory Concentration (MIC) K. pneumoniae [3] | Minimum Inhibitory Concentration (MIC) P. aeruginosa [4] | Minimum Inhibitory Concentration (MIC) E. coli [5] | Minimum Inhibitory Concentration (MIC) A. baumannii [6] | IC50 at 48 hours [7]
CC(C)[C@@H]1NC(=O)[C@H](C(C)C)NC(=O)[C@@](C)(NC(=O)[C@H](C)NC(=O)[C@H](CCCCN)NC(=O)CNC(=O)[C@H](Cc2ccc(F)cc2)NC(=O)[C@H](CCCCN)NC(=O)[C@H](CCCCN)NC(=O)[C@H](CCCCN)NC(=O)[C@H](CCCCN)NC(=O)[C@H](Cc2c[nH]cn2)NC(=O)[C@]2(C)CCCC=CCCC[C@](C)(NC(=O)CN)C(=O)NCC(=O)N[C@@H](CCCCN)C(=O)N[C@@H](Cc3ccc(F)cc3)C(=O)N2)CCCC=CCCC[C@@](C)(C(=O)N[C@@H](C)C(=O)N[C@@H](CCCCN)C(=O)N[C@@H](CCCCN)C(N)=O)NC(=O)[C@H](CCC(=O)O)NC1=O [compound 29] (H-G[S5]GK[Phe(4-F)][S5]HKKKK[Phe(4-F)]GKA[S5]VVE[S5]AKK-NH2; staple 2-6, 16-20) | >64 µg/mL | 86 µg/mL (≈ 32.4 µM) | 4 µg/mL | 4 µg/mL | 2 µg/mL | 2 µg/mL | 
CC(C)[C@@H]1NC(=O)[C@H](C(C)C)NC(=O)[C@@](C)(NC(=O)[C@H](C)NC(=O)[C@H](CCCCN)NC(=O)CNC(=O)[C@H](Cc2ccc(C(F)(F)F)cc2)NC(=O)[C@H](CCCCN)NC(=O)[C@H](CCCCN)NC(=O)[C@H](CCCCN)NC(=O)[C@H](CCCCN)NC(=O)[C@H](Cc2c[nH]cn2)NC(=O)[C@]2(C)CCCC=CCCC[C@](C)(NC(=O)CN)C(=O)NCC(=O)N[C@@H](CCCCN)C(=O)N[C@@H](Cc3ccc(C(F)(F)F)cc3)C(=O)N2)CCCC=CCCC[C@@](C)(C(=O)N[C@@H](C)C(=O)N[C@@H](CCCCN)C(=O)N[C@@H](CCCCN)C(N)=O)NC(=O)[C@H](CCC(=O)O)NC1=O [compound 30] (H-G[S5]GK[Phe(4-CF3)][S5]HKKKK[Phe(4-CF3)]GKA[S5]VVE[S5]AKK-NH2; staple 2-6, 16-20) | 32 µg/mL | 17 µg/mL (≈ 6.18 µM) | 4 µg/mL | 4 µg/mL | 2 µg/mL | 2 µg/mL | 
CC(C)[C@@H]1NC(=O)[C@@](C)(NC(=O)[C@H](CO)NC(=O)[C@H](CCCCN)NC(=O)CNC(=O)[C@H](Cc2ccccc2)NC(=O)[C@H](CCCCN)NC(=O)[C@H](CCCCN)NC(=O)[C@H](CCCCN)NC(=O)[C@H](CCCCN)NC(=O)[C@H](CCCCN)NC(=O)[C@]2(C)CCCC=CCCC[C@](C)(NC(=O)CN)C(=O)NCC(=O)N[C@@H](CCCCN)C(=O)N[C@@H](Cc3ccccc3)C(=O)N2)CCCC=CCCC[C@@](C)(C(=O)N[C@@H](C)C(=O)N[C@@H](CCCCN)C(=O)N[C@@H](CCCCN)C(=O)NCC(=O)NCC(=O)N[C@@H](CCC(=O)O)C(N)=O)NC(=O)[C@H](CCC(=O)O)NC(=O)CNC1=O [compound 92] (H-G[S5]GKF[S5]KKKKKFGKS[S5]VGE[S5]AKKGGE-NH2; staple 2-6, 16-20) | >64 µg/mL |  | >64 µg/mL | 16 µg/mL | 16 µg/mL | 4 µg/mL | > 200 µg/mL
CC(C)[C@@H]1NC(=O)[C@@](C)(NC(=O)[C@H](C)NC(=O)[C@H](CCCCN)NC(=O)CNC(=O)[C@H](Cc2ccccc2)NC(=O)[C@H](CCCCN)NC(=O)[C@H](CCCCN)NC(=O)[C@H](CCCCN)NC(=O)[C@H](CCCCN)NC(=O)[C@H](CCCCN)NC(=O)[C@]2(C)CCCC=CCCC[C@](C)(NC(=O)CN)C(=O)NCC(=O)N[C@@H](CCCCN)C(=O)N[C@@H](Cc3ccccc3)C(=O)N2)CCCC=CCCC[C@@](C)(C(=O)N[C@@H](C)C(=O)N[C@@H](CCCCN)C(=O)N[C@@H](CCCCN)C(=O)NCC(=O)NCC(=O)N[C@@H](CCC(=O)O)C(N)=O)NC(=O)[C@H](CCC(=O)O)NC(=O)[C@H](CO)NC1=O [compound 93] (H-G[S5]GKF[S5]KKKKKFGKA[S5]VSE[S5]AKKGGE-NH2; staple 2-6, 16-20) | >64 µg/mL |  | 32 µg/mL | 1 µg/mL | 2 µg/mL | 1 µg/mL | > 200 µg/mL
CC(C)[C@@H]1NC(=O)[C@@](C)(NC(=O)[C@H](C)NC(=O)[C@H](CCCCN)NC(=O)CNC(=O)[C@H](Cc2ccccc2)NC(=O)[C@H](CCCCN)NC(=O)[C@H](CCCCN)NC(=O)[C@H](CCCCN)NC(=O)[C@H](CCCCN)NC(=O)[C@H](CCCCN)NC(=O)[C@]2(C)CCCC=CCCC[C@](C)(NC(=O)CN)C(=O)NCC(=O)N[C@@H](CCCCN)C(=O)N[C@@H](Cc3ccccc3)C(=O)N2)CCCC=CCCC[C@@](C)(C(=O)N[C@@H](CO)C(=O)N[C@@H](CCCCN)C(=O)N[C@@H](CCCCN)C(=O)NCC(=O)NCC(=O)N[C@@H](CCC(=O)O)C(N)=O)NC(=O)[C@H](CCC(=O)O)NC(=O)CNC1=O [compound 94] (H-G[S5]GKF[S5]KKKKKFGKA[S5]VGE[S5]SKKGGE-NH2; staple 2-6, 16-20) | 64 µg/mL |  | >64 µg/mL | 2 µg/mL | 8 µg/mL | 4 µg/mL | > 200 µg/mL
C#CC[C@H](NC(=O)[C@H](CCC(=O)O)NC(=O)CNC(=O)CNC(=O)[C@H](CCCCN)NC(=O)[C@H](CCCCN)NC(=O)[C@H](C)NC(=O)[C@]1(C)CCCC=CCCC[C@](C)(NC(=O)[C@H](C)NC(=O)[C@H](CCCCN)NC(=O)CNC(=O)[C@H](Cc2ccccc2)NC(=O)[C@H](CCCCN)NC(=O)[C@H](CCCCN)NC(=O)[C@H](CCCCN)NC(=O)[C@H](CCCCN)NC(=O)[C@H](CCCCN)NC(=O)[C@]2(C)CCCC=CCCC[C@](C)(NC(=O)CN)C(=O)NCC(=O)N[C@@H](CCCCN)C(=O)N[C@@H](Cc3ccccc3)C(=O)N2)C(=O)N[C@@H](C(C)C)C(=O)NCC(=O)N[C@@H](CCC(=O)O)C(=O)N1)C(N)=O [compound 95] (H-G[S5]GKF[S5]KKKKKFGKA[S5]VGE[S5]AKKGGE[Pra]-NH2; staple 2-6, 16-20) | >64 µg/mL |  | 64 µg/mL | 4 µg/mL | 4 µg/mL | 2 µg/mL | > 200 µg/mL
